According to patent publication US20260256792A1, “TREATMENT OF CHRONIC SPONTANEOUS URTICARIA BY ADMINISTERING (R)-2-[3-[4-AMINO-3-(2-FLUORO-4-PHENOXY-PHENYL)PYRAZOLO[3,4-D]PYRIMIDIN-1-YL]PIPERIDINE-1-CARBONYL]-4-METHYL-4-[4-(OXETAN-3-YL)PIPERAZIN-1-YL]PENT-2-ENENITRILE” (priority 2023, published 2026):

Legend:
rat Arthus reaction = details: cited from earlier work
platelet aggregation = details: healthy volunteers or patients with ITP; cited from earlier work
cardiac repolarization = details: healthy volunteers (N=51), also supratherapeutic doses; cited from earlier work
[1] = tested on: moderate-to-severe chronic spontaneous urticaria (CSU); test: Phase 2 CSU study: Patient Global Impression of Change (PGIC); assay type: in vivo, human; details: for PGIC Mean (SD) / PGIC Median / PGIC category A little better, patients / PGIC category A little worse, patients / PGIC category Moderately better, patients / PGIC category Moderately worse, patients / PGIC category No change, patients / PGIC category Very much better, patients / PGIC category Very much worse, patients: omalizumab-naïve population; for PGIC LS Mean (SE) / PGIC LS Mean Diff vs. placebo (95% CI): omalizumab-naïve, ANCOVA
Text: The study comprises a 12 week, randomized, double-blind, placebo-controlled, multi-center, dose-ranging efficacy and safety phase, followed by a 40 week open label extension (OLE) phase (see FIG. 1).
The study consists of three phases and an optional OLE phase.
The PGIS is a 1-item measure that asks participants to provide a self-assessment of their overall CSU severity for the past week on a 4 point scale. Response choices are: “None”, “Mild”, “Moderate” and “Severe”. The PGIC is a 1-item measure that asks the participant to provide a self-assessment of overall change in their CSU since the participant started taking the study medication on a 7-point scale. The response options range from “Very Much Better” to “Very Much Worse.” Patients were to complete questionnaires for the 2 items during their site visit.

CC(C)(C=C(C#N)C(=O)N1CCC[C@@H](n2nc(-c3ccc(Oc4ccccc4)cc3F)c3c(N)ncnc32)C1)N1CCN(C2COC2)CC1 [rilzabrutinib, (R)-2-[3-[4-amino-3-(2-fluoro-4-phenoxy-phenyl)pyrazolo[3,4-d]pyrimidin-1-yl]piperidine-1-carbonyl]-4-methyl-4-[4-(oxetan-3-yl)piperazin-1-yl]pent-2-enenitrile]
rat Arthus reaction (rat Arthus reaction): blockade
effect on platelet aggregation (platelet aggregation): does not alter
effects on cardiac repolarization (ECG parameters incl. corrected QT interval) (cardiac repolarization): does not exert clinically relevant effects
quality of life as measured by PGIC ([1]; 400 mg TID): improvement
PGIC Mean (SD) ([1]; Week 2, 400 mg BID): 1.61
PGIC Median ([1]; Week 2, 400 mg BID): 1.00
PGIC category A little better, patients ([1]; Week 2, 400 mg BID): 6 (19.4)
PGIC category A little worse, patients ([1]; Week 2, 400 mg BID): 1 (3.2)
PGIC category Moderately better, patients ([1]; Week 2, 400 mg BID): 5 (16.1)
PGIC category Moderately worse, patients ([1]; Week 2, 400 mg BID): 1 (3.2)
PGIC category No change, patients ([1]; Week 2, 400 mg BID): 6 (19.4)
PGIC category Very much better, patients ([1]; Week 2, 400 mg BID): 11 (35.5)
PGIC category Very much worse, patients ([1]; Week 2, 400 mg BID): 1 (3.2)
PGIC LS Mean (SE) ([1]; Week 2, 400 mg BID): 1.53
PGIC LS Mean Diff vs. placebo (95% CI) ([1]; Week 2, 400 mg BID): −0.81
PGIC Mean (SD) ([1]; Week 2, 400 mg QPM): 2.33
PGIC Median ([1]; Week 2, 400 mg QPM): 3.00
PGIC category A little better, patients ([1]; Week 2, 400 mg QPM): 7 (21.2)
PGIC category A little worse, patients ([1]; Week 2, 400 mg QPM): 1 (3.0)
PGIC category Moderately better, patients ([1]; Week 2, 400 mg QPM): 5 (15.2)
PGIC category Moderately worse, patients ([1]; Week 2, 400 mg QPM): 0
PGIC category No change, patients ([1]; Week 2, 400 mg QPM): 16 (48.5)
PGIC category Very much better, patients ([1]; Week 2, 400 mg QPM): 3 (9.1)
PGIC category Very much worse, patients ([1]; Week 2, 400 mg QPM): 1 (3.0)
PGIC LS Mean (SE) ([1]; Week 2, 400 mg QPM): 2.12
PGIC LS Mean Diff vs. placebo (95% CI) ([1]; Week 2, 400 mg QPM): −0.22
PGIC Mean (SD) ([1]; Week 2, 400 mg TID): 1.42
PGIC Median ([1]; Week 2, 400 mg TID): 1.00
PGIC category A little better, patients ([1]; Week 2, 400 mg TID): 7 (21.2)
PGIC category A little worse, patients ([1]; Week 2, 400 mg TID): 0
PGIC category Moderately better, patients ([1]; Week 2, 400 mg TID): 7 (21.2)
PGIC category Moderately worse, patients ([1]; Week 2, 400 mg TID): 1 (3.0)
PGIC category No change, patients ([1]; Week 2, 400 mg TID): 5 (15.2)
PGIC category Very much better, patients ([1]; Week 2, 400 mg TID): 12 (36.4)
PGIC category Very much worse, patients ([1]; Week 2, 400 mg TID): 1 (3.0)
PGIC LS Mean (SE) ([1]; Week 2, 400 mg TID): 1.43
PGIC LS Mean Diff vs. placebo (95% CI) ([1]; Week 2, 400 mg TID): −0.91
PGIC Mean (SD) ([1]; Week 4, 400 mg BID): 1.67
PGIC Median ([1]; Week 4, 400 mg BID): 1.00
PGIC category A little better, patients ([1]; Week 4, 400 mg BID): 6 (18.2)
PGIC category A little worse, patients ([1]; Week 4, 400 mg BID): 2 (6.1)
PGIC category Moderately better, patients ([1]; Week 4, 400 mg BID): 8 (24.2)
PGIC category Moderately worse, patients ([1]; Week 4, 400 mg BID): 0
PGIC category No change, patients ([1]; Week 4, 400 mg BID): 7 (21.2)
PGIC category Very much better, patients ([1]; Week 4, 400 mg BID): 9 (27.3)
PGIC category Very much worse, patients ([1]; Week 4, 400 mg BID): 1 (3.0)
PGIC LS Mean (SE) ([1]; Week 4, 400 mg BID): 1.59
PGIC LS Mean Diff vs. placebo (95% CI) ([1]; Week 4, 400 mg BID): −0.49
PGIC Mean (SD) ([1]; Week 4, 400 mg QPM): 2.24
PGIC Median ([1]; Week 4, 400 mg QPM): 2.00
PGIC category A little better, patients ([1]; Week 4, 400 mg QPM): 10 (29.4)
PGIC category A little worse, patients ([1]; Week 4, 400 mg QPM): 5 (14.7)
PGIC category Moderately better, patients ([1]; Week 4, 400 mg QPM): 4 (11.8)
PGIC category Moderately worse, patients ([1]; Week 4, 400 mg QPM): 1 (2.9)
PGIC category No change, patients ([1]; Week 4, 400 mg QPM): 7 (20.6)
PGIC category Very much better, patients ([1]; Week 4, 400 mg QPM): 6 (17.6)
PGIC category Very much worse, patients ([1]; Week 4, 400 mg QPM): 1 (2.9)
PGIC LS Mean (SE) ([1]; Week 4, 400 mg QPM): 2.06
PGIC LS Mean Diff vs. placebo (95% CI) ([1]; Week 4, 400 mg QPM): −0.02
PGIC Mean (SD) ([1]; Week 4, 400 mg TID): 1.14
PGIC Median ([1]; Week 4, 400 mg TID): 1.00
PGIC category A little better, patients ([1]; Week 4, 400 mg TID): 6 (20.7)
PGIC category A little worse, patients ([1]; Week 4, 400 mg TID): 1 (3.4)
PGIC category Moderately better, patients ([1]; Week 4, 400 mg TID): 5 (17.2)
PGIC category Moderately worse, patients ([1]; Week 4, 400 mg TID): 0
PGIC category No change, patients ([1]; Week 4, 400 mg TID): 4 (13.8)
PGIC category Very much better, patients ([1]; Week 4, 400 mg TID): 13 (44.8)
PGIC category Very much worse, patients ([1]; Week 4, 400 mg TID): 0
